# Data published in patent US20100075965A1, “PI3 KINASE INHIBITORS AND METHODS OF THEIR USE” (Novartis AG, priority 2006, published 2010).
# Read-outs that look alike come from different tables or passages of the source.
# How the values were obtained:
# [1] = test system: A2780 cells; test: Viability assay in A2780 (Cell Titer Glo); format: cell-based, human; conditions: Homo sapiens
# In short: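 EC50 values come from Cell Titer Glo luminescence after 72 hrs of compound exposure at 37° C, run in duplicate. A2780 cells were plated at 1,000 per well in DMEM with 10% FBS and dosed with 3-fold serial dilutions.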
# [2] = test system: pSer473-Akt in A2780 cells; test: pSer473 Akt assay to monitor PI3K pathway in A2780 cells (MSD); format: cell-based; conditions: Homo sapiens
# Description: In this method, an assay for measuring the PI3K-mediated pSer^473-Akt status after treatment with representative inhibitor compounds of the preferred embodiments is described.
# A2780 cells were cultured in DMEM supplemented with 10% FBS, L-glutamine, sodium pyruvate, and antibiotics. Cells were plated in the same medium at a density of 15,000 cells per well into 96 well tissue culture plates, with outside wells vacant, and allowed to adhere overnight.
# Test compounds supplied in DMSO were diluted further into DMSO at 500 times the desired final concentrations before dilution into culture media to 2 times the final concentrations. Equal volumes of 2× compounds in media were added to the cells in 96 well plates and incubated at 37° C. for one hour. The media and compounds were then removed, the plates chilled and cells lysed in a lysis buffer (150 mM NaCl, 20 mM Tris pH 7.5, 1 mM EDTA, 1 mM EGTA, 1% Triton X-100) supplemented with phosphatase and protease inhibitors. After thorough mixing, lysates were transferred to both pSer473Akt and total Akt assay plates from Meso Scale Discovery (MSD), and incubated overnight with shaking at 4° C. The plates were washed with 1×MSD wash buffer and the captured analytes detected with secondary antibodies. After incubation with the secondary antibody at room temperature for 1-2 hours, the plates were washed again and 1.5× concentration of Read Buffer T (MSD) was added to the wells.
# The assays were read on a SECTOR Imager 6000 instrument (Meso Scale Discovery). Ratios of the signal from pSer473Akt and total Akt assays were used to correct for any variability and the percent inhibition of pSer473Akt from the total signal seen in cells treated with compound versus DMSO alone was calculated and used to determine EC50 values for each compound as shown in Tables 1 and 2 in the column labeled “A2780 pAKT473 EC50”.
# [3] = molecular target: PI3 K Alpha (Homo sapiens, UniProt P42336); test: PI3 kinase phosphorylation assays (homogenous solution phase, one step solid phase, ATP depletion/KinaseGlo); format: biochemical
# [4] = A2780 cells, 72 hrs, read-out: A2780 Cell prolif. EC50
# [5] = 1 h, A2780 cells, one hour incubation, read-out: A2780 pAKT473 EC50
# [6] = ATP depletion assay, read-out: PI3 K Alpha IC50
# [7] = A2780 cells, read-out: A2780 Cell prolif. EC50
# [8] = A2780 cells, read-out: A2780 pAKT 473 EC50
# Sequence of PI3 K Alpha (P42336 whole entry): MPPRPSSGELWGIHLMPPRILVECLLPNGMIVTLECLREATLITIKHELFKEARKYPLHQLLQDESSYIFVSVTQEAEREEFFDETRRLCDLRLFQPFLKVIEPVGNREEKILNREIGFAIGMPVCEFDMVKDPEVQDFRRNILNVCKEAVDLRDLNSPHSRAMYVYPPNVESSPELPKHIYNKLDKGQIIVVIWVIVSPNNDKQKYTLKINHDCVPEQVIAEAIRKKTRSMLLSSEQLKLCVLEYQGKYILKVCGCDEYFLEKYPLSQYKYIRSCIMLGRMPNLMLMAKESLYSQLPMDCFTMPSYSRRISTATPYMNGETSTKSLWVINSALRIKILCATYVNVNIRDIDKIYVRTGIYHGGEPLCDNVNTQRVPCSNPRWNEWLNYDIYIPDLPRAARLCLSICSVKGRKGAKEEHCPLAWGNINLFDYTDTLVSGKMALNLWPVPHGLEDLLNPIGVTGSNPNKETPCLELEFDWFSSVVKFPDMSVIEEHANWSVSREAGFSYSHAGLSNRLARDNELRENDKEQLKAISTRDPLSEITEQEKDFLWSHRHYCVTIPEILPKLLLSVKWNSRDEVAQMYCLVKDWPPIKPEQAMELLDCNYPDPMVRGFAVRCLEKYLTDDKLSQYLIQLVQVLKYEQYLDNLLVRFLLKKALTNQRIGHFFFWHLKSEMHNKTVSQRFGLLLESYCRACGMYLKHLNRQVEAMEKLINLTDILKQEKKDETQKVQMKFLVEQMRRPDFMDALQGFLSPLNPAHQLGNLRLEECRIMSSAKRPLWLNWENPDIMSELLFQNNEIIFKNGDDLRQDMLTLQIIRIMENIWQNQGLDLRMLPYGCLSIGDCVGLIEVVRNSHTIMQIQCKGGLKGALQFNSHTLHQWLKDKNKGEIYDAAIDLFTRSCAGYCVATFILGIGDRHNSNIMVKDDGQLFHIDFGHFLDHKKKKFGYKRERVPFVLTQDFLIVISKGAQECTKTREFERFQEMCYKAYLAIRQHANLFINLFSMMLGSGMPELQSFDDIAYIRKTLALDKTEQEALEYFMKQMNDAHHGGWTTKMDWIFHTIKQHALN
# Sequence of PI3 K Alpha (P27986 whole entry partner): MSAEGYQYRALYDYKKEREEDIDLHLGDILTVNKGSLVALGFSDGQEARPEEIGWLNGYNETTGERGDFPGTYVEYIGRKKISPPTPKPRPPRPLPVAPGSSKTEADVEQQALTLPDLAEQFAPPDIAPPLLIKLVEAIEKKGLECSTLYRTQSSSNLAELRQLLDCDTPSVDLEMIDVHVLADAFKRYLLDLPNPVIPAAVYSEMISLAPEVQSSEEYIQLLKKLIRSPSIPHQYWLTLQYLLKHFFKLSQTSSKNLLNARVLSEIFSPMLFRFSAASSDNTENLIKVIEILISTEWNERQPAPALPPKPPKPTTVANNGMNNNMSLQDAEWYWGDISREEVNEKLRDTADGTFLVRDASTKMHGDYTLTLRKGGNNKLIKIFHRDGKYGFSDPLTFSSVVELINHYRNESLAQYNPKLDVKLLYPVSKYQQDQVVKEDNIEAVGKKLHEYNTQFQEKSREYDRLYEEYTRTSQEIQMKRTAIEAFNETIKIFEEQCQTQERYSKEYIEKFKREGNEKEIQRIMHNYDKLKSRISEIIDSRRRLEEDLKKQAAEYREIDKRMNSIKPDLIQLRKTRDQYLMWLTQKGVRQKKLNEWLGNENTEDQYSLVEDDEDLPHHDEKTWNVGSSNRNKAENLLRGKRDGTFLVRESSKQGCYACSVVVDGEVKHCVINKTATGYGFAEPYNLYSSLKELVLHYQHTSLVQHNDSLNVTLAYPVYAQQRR
SMILES,"EC50 [1, 7] [nM]","EC50 [2, 8] [nM]",IC50 ([3]; read-out: PI3K Alpha IC50) [nM],further results
"CC(=O)Nc1nc2c(F)cc(-c3cnc(N)c(C(F)(F)F)c3)cc2s1 [Example 2-31, N-[6-(6-Amino-5-trifluoromethyl-pyridin-3-yl)-4-fluoro-benzothiazol-2-yl]-acetamide]",–,–,–,"EC50 [1, 4]: < 25000 nM; EC50 [2, 5]: < 1000 nM; IC50 [3, 6]: < 1000 nM"
"CC(=O)Nc1nc2ccc(-c3cnc(N)c(F)c3)cc2s1 [Example 2-6, N-[6-(6-Amino-5-fluoro-pyridin-3-yl)-benzothiazol-2-yl]-acetamide]",–,–,–,"EC50 [1, 4]: < 10000 nM; EC50 [2, 5]: < 1000 nM; IC50 [3, 6]: < 1000 nM"
"CC(=O)Nc1cn2cc(-c3cnc(N)c(C=O)c3)ccc2n1 [Example 195, N-(6-(6-amino-5-formylpyridin-3-yl)imidazo[1,2-a]pyridin-2-yl)acetamide]",< 10000,< 1000,< 1000,–
"CC(=O)Nc1cn2nc(-c3cnc(N)c(OC(F)F)c3)ccc2n1 [Example 72, N-(6-(6-amino-5-(difluoromethoxy)pyridin-3-yl)imidazo[1,2-b]pyridazin-2-yl)acetamide]",< 1000,< 1000,< 1000,–
"COc1ccc(C#Cc2c(NC(C)=O)nc3ccc(-c4cnc(N)c(C(F)(F)F)c4)cn23)cc1 [Example 117, N-(6-(6-amino-5-(trifluoromethyl)pyridin-3-yl)-3-((4-methoxyphenyl)ethynyl)imidazo[1,2-a]pyridin-2-yl)acetamide]",< 10000,< 1000,< 1000,–
"CC(=O)Nc1nc2ccc(-c3cnc(N)c(C(F)(F)F)c3)cn2c1C#Cc1ccncc1 [Example 68, N-(6-(6-amino-5-(trifluoromethyl)pyridin-3-4-ylethynyl)imi-dazo[1,2-a]pyridin-2-yl)acetamide]",–,–,–,"EC50 ([1]; A2780, read-out: A2780 Cell prolif. EC50): < 1000 nM; EC50 ([2]; A2780, read-out: A2780 pAKT 473 EC50): < 1000 nM; IC50 [3]: < 1000 nM"
"CC(=O)Nc1nc2ccc(-c3cnc(N)c(C(F)(F)F)c3)c(C)c2s1 [Example 2-27, N-[6-(6-Amino-5-trifluoromethyl-pyridin-3-yl)-7-methyl-benzothiazol-2-yl]-acetamide]",–,–,–,"EC50 [1, 4]: < 10000 nM; EC50 [2, 5]: < 1000 nM; IC50 [3, 6]: < 1000 nM"
"CC(=O)Nc1cn2nc(-c3cnc(N)c(C(=O)O)c3)ccc2n1 [Example 136, 5-(2-acetamido-imidazo[1,2-b]pyridazin-6-yl)-2-aminonicotinic acid]",< 25000,< 25000,< 1000,–
"CC(=O)Nc1cn2cc(-c3cnc(N)c(-c4cccc(N5CCOCC5)c4)c3)ccc2n1 [Example 86, N-(6-(6-amino-5-(3-morpholino-phenyl)pyridin-3-yl)imidazo[1,2-a]pyridin-2-yl)acetamide]",< 1000,< 1000,< 1000,–
"CN(C)CCCC(=O)Nc1cn2nc(-c3cnc(N)c(C(F)(F)F)c3)ccc2n1 [Example 66, N-(6-(6-amino-5-(trifluoromethyl)pyridin-3-yl)imidazo[1,2-b]pyridazin-2-yl)-4-(dimethylamino) butanamide]",< 1000,< 1000,< 1000,–
"CC(=O)Nc1cn2nc(-c3cnc(N)c(-c4ccccc4Oc4ccccc4)c3)ccc2n1 [Example 115, N-(6-(6-amino-5-(2-phenoxyphenyl)pyridin-3-yl)imidazo[1,2-b]pyridazin-2-yl)acetamide]",< 10000,< 1000,< 1000,–
"Nc1ccc(-c2ccc3nc(NC(=O)OCCN4CCOCC4)sc3c2)cn1 [Example 2-24, [6-(6-Amino-pyridin-3-yl)-benzothiazol-2-yl]-carbamic acid 2-morpholin-4-yl-ethyl ester]",–,–,–,"EC50 [1, 4]: < 25000 nM; EC50 [2, 5]: < 10000 nM; IC50 [3, 6]: < 1000 nM"
"CCC(=O)Nc1cn2nc(-c3cnc(N)c(C(F)(F)F)c3)ccc2n1 [Example 96, N-(6-(6-amino-5-(trifluoromethyl)pyridin-3-yl)imidazo[1,2-b]pyridazin-2-yl)propionamide]",< 1000,< 1000,< 1000,–
"CC(=O)Nc1nc2ccc(-c3cnc(N)c(C(F)(F)F)c3)cn2c1C#Cc1ccc(C)cc1 [Example 127, N-(6-(6-amino-5-(trifluoromethyl)pyridin-3-yl)-3-(p-tolylethynyl)imidazo[1,2-a]pyridin-2-yl)acetamide]",< 10000,< 1000,< 1000,–
"Nc1ncc(-c2ccc3nc(NC(=O)CCCN4CCCCC4)cn3c2)cc1C(F)(F)F [Example 25, N-[6-(6-Amino-5-trifluoromethyl-pyridin-3-yl)-imidazo[1,2-a]pyridin-2-yl]-4-piperidin-1-yl-butyramide]",< 10000,< 1000,< 1000,–
"CC(=O)Nc1nc2ccc(-c3cnc(N)c(OCC(F)(F)F)n3)cc2s1 [Example 2-37, N-(6-(5-amino-6-(2,2,2-trifluoroethoxy)pyrazin-2-yl)benzo[d]thiazol-2-yl)acetamide]",–,–,–,"EC50 [1, 4]: < 1000 nM; EC50 [2, 5]: < 1000 nM; IC50 [3, 6]: < 1000 nM"
"CC(=O)Nc1cn2nc(-c3cnc(N)c(-c4ccc(C(F)(F)F)cc4)c3)ccc2n1 [Example 107, N-(6-(6-amino-5-(4-(trifluoromethyl)phenyl)pyridin-3-yl)imidazo[1,2-b]pyridazin-2-yl)acetamide]",< 1000,< 1000,< 1000,–
"Nc1ncc(-c2ccc3nc(NC(=O)C4CNC4)cn3n2)cc1C(F)(F)F [Example 116, N-(6-(6-amino-5-(trifluoromethyl)pyridin-3-yl)imidazo[1,2 b]pyridazin-2-yl)azetidine-3-carboxamide]",< 10000,< 1000,< 1000,–
"CC(=O)Nc1cn2cc(-c3cnc(N)nc3)ccc2n1 [Example 4, N-[6-(2-Amino-pyrimidin-5-yl)-imidazo[1,2-a]pyridin-2-yl]-acetamide]",< 25000,< 10000,< 1000,–
"CC(=O)Nc1cn2nc(-c3cnc(N)c(-c4ccccc4F)c3)ccc2n1 [Example 81, N-(6-(6-amino-5-(2-fluorophenyl)pyridin-3-yl)imidazo[1,2-b]pyridazin-2-yl)acetamide]",< 1000,< 1000,< 1000,–
COCC(=O)Nc1cn2cc(-c3cnc(N)c(OCC(F)(F)F)n3)ccc2n1 [Example 89],< 1000,< 1000,< 1000,–
"CNC(=O)c1ccc(-c2c(NC(C)=O)nc3ccc(-c4cnc(N)c(C(F)(F)F)c4)cn23)cc1 [Example 18, 4-[2-Acetylamino-6-(6-amino-5-trifluoromethyl-pyridin-3-yl)-imidazo[1,2-a]pyridin-3-yl]-N-methyl-benzamide]",< 25000,< 10000,< 1000,–
"COCCOc1nc(-c2ccc3nc(NC(=O)COC)cn3c2)cnc1N [Example 196, N-(6-(5-amino-6-(2-methoxyethoxy)pyrazin-2-yl)imidazo[1,2-a]pyridin-2-yl)-2-methoxyacetamide]",< 10000,< 1000,< 1000,–
"COCC(=O)Nc1cn2nc(-c3cnc(N)c(C(F)(F)F)c3)ccc2n1 [Example 74, n-(6-(6-amino-5-(trifluoromethyl)pyridin-3-yl)imidazo[1,2-b]pyridazin-2-yl)-2-methoxyacetamide]",< 1000,< 1000,< 1000,–
